Reference: patent US9939427B2, “Method for evaluating the scent performance of perfumes or perfume mixtures” (Symrise AG, priority 2013, dated 2018)
One block for each molecule: values may come before it.

Experiments:
Type in all cases: cell-based
OR52B4 = target: T1, OR52B4 (Homo sapiens, UniProt Q8NGK2); test: Ca-imaging of OR52B4-transfected HEK293 cells; set-up: key: ▪: 18 olfactory receptors responded to 32 odorants in related with specific anosmia; details: individual odorant 200 μM, significant response p<0.05
T1 construct: specific primers, which amplify the complete open reading frame; expressed in transfected cells; host or cells: HEK293
T1 sequence (Q8NGK2 1-314): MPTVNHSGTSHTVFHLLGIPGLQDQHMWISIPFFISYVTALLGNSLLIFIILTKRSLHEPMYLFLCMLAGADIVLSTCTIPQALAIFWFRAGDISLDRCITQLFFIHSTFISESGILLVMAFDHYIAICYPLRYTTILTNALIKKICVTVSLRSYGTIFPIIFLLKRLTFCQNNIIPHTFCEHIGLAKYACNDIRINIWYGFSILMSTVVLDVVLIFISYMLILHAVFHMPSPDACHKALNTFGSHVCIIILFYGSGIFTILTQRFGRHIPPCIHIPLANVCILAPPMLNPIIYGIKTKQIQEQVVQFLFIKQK
Description: (§1) HEK293 cells were cultivated in Petri dishes (Ø35 mm) as previously described (Benbernou et al. 2007). We grow up HEK293 cells in culture medium containing standard DMEM with 10% heat-inactivated fetal bovine serum, 2 mM L-glutamine, 100 units/ml penicillin, and 100 units/ml streptomycin in a humidified atmosphere (37° C., 5% CO2). After 2-3 days, the transfection process was carried out, whereby the cell culture was 70-80% confluent. The calciumphosphate method was applied to transfect DNA plasmid transiently in HEK293 cells in case of Ca-imaging method.
(§2) Calcium cations and phosphate anions created crystal precipitations coupled with DNA which could invade into the cells through endocytosis. Cells were transiently transfected with plasmid DNA which consists of pCI expression vector and PCR-amplified full-length cDNA of olfactory receptors candidates, and also Gα15, RTP1, Myr-Ric8A, HSC70, and m-Cherry as cofactors. The precipitation could be created after 15-20 min, with dropping the transfection solution on HEK293 cells. Before measuring by Ca-imaging cells were incubated 48-60 hours at 370 C, 5% CO2. Cationic liposome-mediated transfection method was applied to transfect DNA plasmid transiently in HANA3A cells in case of CRE-Luciferase and CRE-SEAP assays.
(§3) Calcium imaging of the transfected HEK293 cells was done by using chambers determinate an inverted microscope (Olympus; IX70) using a 10× objective (CPIanFL N Olympus). Fluorescence emission was determined every 4 s by using a CCD camera (Charge Coupled Device, C9100 Hamamatsu). The capillary tube which was responsible to supply odorants was generated closely above the cells. The columns filled with odorants, DMSO and ATP. Odorants were manually monitored to drop each 4-5 s to transfected cells. Solutions with drop wise form spread on HEK293 cells in 35 mm dishes.
In experiments, Fura-2 Acetoxymethylester (Fura-2/AM) was applied. The non-polar Fura2/AM is fluorescent but not yet calcium-sensitive. Once diffuses into cell plasma, Fura-2/AM is hydrolyzed to Fura-2 which is calcium-sensitive and functions as Ca2+ chelator. Regardless of the presence of calcium, Fura-2 emits at the wavelength of 510 nm. […] According to this feature, the analysis of 340/380 nm excitation ratio for Fura-2 allows to quantify intracellular calcium levels. […]
(§4) Ringer's solution was used for washing cells between measuring by two different odorants. Positive response was determined by the timing of the response, the strength of the response (more than twofold higher than the noise amplitude of the baseline), and the shape of the response curve (sharp rise in curve with gradual recovery). […]

OR4E2 = target: T2, OR4E2 (Homo sapiens, UniProt Q8NGC2); test: Ca-imaging of OR4E2-transfected HEK293 cells; set-up: key: ▪: 18 olfactory receptors responded to 32 odorants in related with specific anosmia; details: individual odorant 200 μM, significant response p<0.05
T2 construct: specific primers, which amplify the complete open reading frame; expressed in transfected cells; host or cells: HEK293
T2 sequence (Q8NGC2 1-313): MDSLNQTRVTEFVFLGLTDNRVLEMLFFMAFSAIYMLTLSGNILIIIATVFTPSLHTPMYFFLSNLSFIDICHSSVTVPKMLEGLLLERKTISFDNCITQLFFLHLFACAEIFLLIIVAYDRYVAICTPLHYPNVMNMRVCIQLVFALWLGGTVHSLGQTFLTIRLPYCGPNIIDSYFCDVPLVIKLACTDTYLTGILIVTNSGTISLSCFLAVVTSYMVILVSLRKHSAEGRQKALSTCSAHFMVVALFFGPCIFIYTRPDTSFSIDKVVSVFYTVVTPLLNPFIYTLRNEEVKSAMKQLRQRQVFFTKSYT
Description: as §1
as §2, with “Cationic liposome-mediated transfection method was applied to transfect DNA plasmid transiently in HANA3A cells in case of CRE-Luciferase and CRE-SEAP assays.” left out
(§5) Calcium imaging of the transfected HEK293 cells was done by using chambers determinate an inverted microscope (Olympus; IX70) using a 10× objective (CPIanFL N Olympus). Fluorescence emission was determined every 4 s by using a CCD camera (Charge Coupled Device, C9100 Hamamatsu). […] Odorants were manually monitored to drop each 4-5 s to transfected cells. […]
(§6) In experiments, Fura-2 Acetoxymethylester (Fura-2/AM) was applied. […] According to this feature, the analysis of 340/380 nm excitation ratio for Fura-2 allows to quantify intracellular calcium levels. […]
as §4

OR4K2 = target: T3, OR4K2 (Homo sapiens, UniProt Q8NGD2); test: Ca-imaging of OR4K2-transfected HEK293 cells; set-up: key to OR4K2 responded to odorant: ▪: 18 olfactory receptors responded to 32 odorants in related with specific anosmia; details: HEK293 cells, individual odorant 200 μM, significant response p<0.05
T3 construct: specific primers, which amplify the complete open reading frame; expressed in transfected cells; host or cells: HEK293
T3 sequence (Q8NGD2 1-314): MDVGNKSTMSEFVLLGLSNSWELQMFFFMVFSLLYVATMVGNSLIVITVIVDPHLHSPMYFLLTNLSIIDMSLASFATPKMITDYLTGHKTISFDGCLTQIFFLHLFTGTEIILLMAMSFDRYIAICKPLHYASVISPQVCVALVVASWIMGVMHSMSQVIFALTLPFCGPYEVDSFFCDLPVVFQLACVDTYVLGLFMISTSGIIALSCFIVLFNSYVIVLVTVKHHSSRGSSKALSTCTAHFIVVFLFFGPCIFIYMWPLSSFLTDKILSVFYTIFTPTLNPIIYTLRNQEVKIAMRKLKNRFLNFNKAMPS
Description: as §1, §2, §3
In experiments, Fura-2 Acetoxymethylester (Fura-2/AM) was applied. The non-polar Fura2/AM is fluorescent but not yet calcium-sensitive. Once diffuses into cell plasma, Fura-2/AM is hydrolyzed to Fura-2 which is calcium-sensitive and functions as Ca2+ chelator. Regardless of the presence of calcium, Fura-2 emits at the wavelength of 510 nm. Once Fura-2 binds to free intracellular Ca2+ in cell plasma, its ratio of excitation at wavelengths of 340 nm and 380 nm is changed and correlated to the amount of intracellular Ca2+. According to this feature, the analysis of 340/380 nm excitation ratio for Fura-2 allows to quantify intracellular calcium levels.
In preparation for Ca-imaging measurements, transfected HEK293 cells were added 3 it Fura2/AM (3 μM) and incubated 30-45 min at 370 C, 5% CO2. After this step, experiments were carried out in a dark condition (Fura-2 is light-sensitive). After the incubation, medium of cell culture was replaced with 2 ml Ringer's solution.
Odorants were freshly prepared with DMSO as 1 M stocks solutions. Six mixtures (200 μM each chemical) were applied to cells sequentially (20 s each mixture/30 s Ringer). Those ORs tested with single odorants that had generated a response to odorant mixture group previously. Odorants were prepared in 100-200 μM concentration.
as §4

OR12D2 = target: T4, OR12D2 (Homo sapiens, UniProt P58182); test: Ca-imaging of OR12D2-transfected HEK293 cells; set-up: key: ▪: 18 olfactory receptors responded to 32 odorants in related with specific anosmia; details: individual odorant 200 μM, significant response p<0.05
T4 construct: specific primers, which amplify the complete open reading frame; expressed in transfected cells; host or cells: HEK293
T4 sequence (P58182 1-307): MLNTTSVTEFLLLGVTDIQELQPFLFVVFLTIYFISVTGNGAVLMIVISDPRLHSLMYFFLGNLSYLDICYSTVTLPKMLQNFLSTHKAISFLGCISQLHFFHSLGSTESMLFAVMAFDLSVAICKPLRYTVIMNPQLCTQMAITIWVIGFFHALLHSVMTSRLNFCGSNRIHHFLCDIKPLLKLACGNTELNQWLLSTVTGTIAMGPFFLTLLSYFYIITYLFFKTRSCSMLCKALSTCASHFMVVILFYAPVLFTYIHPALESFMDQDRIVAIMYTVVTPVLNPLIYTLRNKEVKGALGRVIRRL
Description: In preparation for Ca-imaging measurements, transfected HEK293 cells were added 3 it Fura2/AM (3 μM) and incubated 30-45 min at 370 C, 5% CO2. After this step, experiments were carried out in a dark condition (Fura-2 is light-sensitive). […]

OR4K5 = target: T5, OR4K5 (Homo sapiens, UniProt Q8NGD3); test: Ca-imaging of OR4K5-transfected HEK293 cells; set-up: key to OR4K5 responded to odorant: ▪: 18 olfactory receptors responded to 32 odorants in related with specific anosmia; details: HEK293 cells, individual odorant 200 μM, significant response p<0.05
T5 construct: specific primers, which amplify the complete open reading frame; expressed in transfected cells; host or cells: HEK293
T5 sequence (Q8NGD3 1-323): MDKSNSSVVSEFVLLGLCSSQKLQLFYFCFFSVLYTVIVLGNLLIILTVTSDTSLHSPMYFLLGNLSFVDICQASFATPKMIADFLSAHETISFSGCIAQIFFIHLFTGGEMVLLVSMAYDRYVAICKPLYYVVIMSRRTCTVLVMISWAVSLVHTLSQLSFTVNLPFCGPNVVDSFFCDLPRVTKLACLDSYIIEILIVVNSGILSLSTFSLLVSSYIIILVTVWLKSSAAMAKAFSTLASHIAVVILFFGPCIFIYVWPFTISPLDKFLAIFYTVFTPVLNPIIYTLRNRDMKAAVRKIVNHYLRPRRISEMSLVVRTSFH
Description: as §1
as §2, with “Cationic liposome-mediated transfection method was applied to transfect DNA plasmid transiently in HANA3A cells in case of CRE-Luciferase and CRE-SEAP assays.” left out
as §5, §6, §4

OR4P4 = target: T6, OR4P4 (Homo sapiens, UniProt Q8NGL7); test: Ca-imaging of OR4P4-transfected HEK293 cells; set-up: key to OR4P4 responded to odorant: ▪: 18 olfactory receptors responded to 32 odorants in related with specific anosmia; details: for OR4P4 responded to odorant: HEK293 cells, individual odorant 200 μM, significant response p<0.05
T6 construct: specific primers, which amplify the complete open reading frame; expressed in transfected cells; host or cells: HEK293
T6 sequence (Q8NGL7 1-312): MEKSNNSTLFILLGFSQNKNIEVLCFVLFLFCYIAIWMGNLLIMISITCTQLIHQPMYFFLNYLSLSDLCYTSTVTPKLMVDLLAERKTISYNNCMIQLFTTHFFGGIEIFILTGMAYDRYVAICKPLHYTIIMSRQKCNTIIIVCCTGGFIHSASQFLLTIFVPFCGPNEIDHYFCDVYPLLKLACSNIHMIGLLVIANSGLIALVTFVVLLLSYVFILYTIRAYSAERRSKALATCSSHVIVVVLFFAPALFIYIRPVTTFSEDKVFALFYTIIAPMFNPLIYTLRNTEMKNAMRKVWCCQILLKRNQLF
Description: as §1
as §2, with “Cationic liposome-mediated transfection method was applied to transfect DNA plasmid transiently in HANA3A cells in case of CRE-Luciferase and CRE-SEAP assays.” left out
as §5, §6, §4

OR52B4 responded to odorant (OR52B4): ▪
Molecule: C=CC(=O)CCCCC [1-Octan-3-One, 1-Octen-3-one]

Molecule: COc1c(Cl)cc(Cl)cc1Cl [2-4-6 trichoroanisole, 2-4-6-Trichloroanisole]
OR4E2 responded to odorant (OR4E2): ▪
OR52B4 responded to odorant (OR52B4): ▪

Molecule: O=CCCc1ccccc1 [3-phenyl propyl aldehyde, 3-Phenylpropionaldehyde]
OR4K2 responded to odorant (OR4K2): ▪
OR4E2 responded to odorant (OR4E2): ▪

OR12D2 responded to odorant (OR12D2): ▪
Molecule: CC(=O)O [Acetic acid]

OR4K5 responded to odorant (OR4K5): ▪
Molecule: CO[C@]1(C)CC[C@@]23C[C@@H]1C(C)(C)[C@@H]2CC[C@H]3C [Cedramber]

OR52B4 responded to odorant (OR52B4): ▪
Molecule: CC1CCCC2(C)CCCCC12O (stereo not shown) [Geosmin]

OR4E2 responded to odorant (OR4E2): ▪
Molecule: CC(C)=CCC/C(C)=C/CO [Graniol, Geraniol]

Molecule: CC(C)C=O [Isobutyr aldehyde, Isobutyraldehyde]
OR4K2 responded to odorant (OR4K2): ▪

OR12D2 responded to odorant (OR12D2): ▪
Molecule: CC(C)CC(=O)O [Isovaleric acid]

Molecule: CCCCCC(=O)O [N-Hexanoic acid, NHexanoic acid]
OR4P4 responded to odorant (OR4P4): ▪

OR12D2 responded to odorant (OR12D2): ▪
Molecule: CCC(=O)O [Propionic acid]

OR52B4 responded to odorant (OR52B4): ▪
Molecule: CC/C(=C\CC1CC=C(C)C1(C)C)CO (stereo not shown) [Sandranol]

OR4P4 responded to odorant (OR4P4): ▪
Response of OR4P4 to odorant, in words (OR4P4; single odorants 200 μM): responded
Molecule: Globalide
